{
  "source": "patent US12128035B2",
  "about": "“Activating pyruvate kinase R” (Novo Nordisk Health Care AG, priority 2021, dated 2024)",
  "key": {"Log D7.4": {"assay": "Log D7.4", "assay_type": "physicochemical", "details": "pH 7.4", "excerpt": "[drawing 2] is a selective, orally bioavailable PKR Activating Compound that decreases 2,3-DPG, increases ATP, and has anti-sickling effects in disease models with a wide therapeutic margin relative to preclinical toxicity. Compound 1 is a potent activator of PKR and a multi-modal metabolic modulator of RBCs. Activation of PKR simultaneously reduces 2,3-DPG concentrations, which increases hemoglobin-oxygen affinity and decreases sickling, while also increasing intracellular ATP, which improves RBC health and reduces hemolysis, or RBC death. Compound 1 is a BCS class II compound with poor water solubility and high permeability."}, "[1]": {"assay": "Phase 1 SAD/MAD: plasma pharmacokinetics in healthy volunteers", "assay_type": "in vivo, human", "details": "14 days of dosing in healthy subjects", "excerpt": "This is a first-in-human (FIH), Phase 1 study of Compound 1 that will characterize the safety, PK, and PD of Compound 1 after a single dose and after repeated dosing first in healthy adult volunteers and then in adolescents or adults with sickle cell disease. Initially, a dose range of Compound 1 in single ascending dose (SAD) escalation cohorts will be explored in healthy subjects. Enrollment of healthy subjects into 2-week multiple ascending dose (MAD) escalation cohorts will be initiated once the safety and PK from at least two SAD cohorts is available to inform the doses for the 2-week MAD portion of the study. The MAD cohorts will then run in parallel to the single dose cohorts. A single dose cohort is planned to understand food effects (FE) on the PK of Compound 1. […]\nIn this study, SAD/MAD cohorts are randomized (3 to 1) to receive Compound 1 or placebo (P). Compound 1 was evaluated first in 4 healthy SAD cohorts and 4 healthy MAD (14-day dosing period) cohorts. Based on the safety, and PK/PD profile from HS, Compound 1 is then evaluated in 1 SCD SAD cohort and 2 SCD MAD cohorts. Specifically, based on the safety and pharmacokinetic/pharmacodynamics (PK/PD) profile in healthy volunteer studies, Compound 1 is evaluated in patients (pts) with SCD, first in a single dose (SD or SAD) cohort and then in multiple-dose (MD or MAD) cohorts (14-day and 12-week). […]"}},
  "data": [
    {"compound": "O=C([C@H](CO)c1ccccc1)N1CC2=C(C1)CN(S(=O)(=O)c1cnc3c(c1)OCCO3)C2", "note": "(single isomer, unassigned) [Compound 1]", "values": [
      {"measurement": "Log D7.4", "setting": "Log D7.4", "value": 1.09},
      {"measurement": "clearance on day 1 and day 14", "setting": "[1]", "value": "unchanged"}
    ]}
  ]
}
